The values that follow come from patent publication US20090281184A1, “PHARMACEUTICAL FOR PREVENTION AND TREATMENT OF OPHTHALMIC DISEASE INDUCED BY IN-CREASE IN VASOPERMEABILITY” (SAPPORO MEDICAL UNIVERSITY, priority 2005, published 2009).

Experiment [1] has as its system VEGF. Put plainly: VEGF expression in primary cultured human astrocyte. The experiment is classed as cell-based. As to conditions: treated groups, FIG. 6. As for the experimental part:
(§1) In Examples 1 and 2, U373MG cells, a cell line having the characteristic as astrocyte, was used for convenience of the experiment. […] Therefore, studies were made to evaluate whether or not the enhancement of the expression of GDNF by the retinoid can be observed also in the system using human astrocyte. The astrocyte used in the experiment was a primary cultured cell isolated from the human brain, and was purchased from Cambrex Corporation, USA. This means provides an advantage that observation is achievable under environments closer to those in vivo.
Whilst, the expression of VRGF that is a strong vascular hyperpermeability factor was suppressed in the treated groups. […] In this case, a value of the expression of each of non-treated groups is used as an inner control, and an amount of the expression of the treated groups is calculated from the concentration on the gel and the area. […] The experimental groups in FIG. 6 are as follows, and the upper figure indicates the photographs of the gel, the lower figure indicates visualized differences of relative amounts obtained by the quantification thereof.

The subject of experiment [2] is GDNF. Kind of experiment: GDNF expression in primary cultured human astrocyte. The experiment is classed as cell-based. As to conditions: for GDNP expression / suppression of the vascular permeability (expression of GDNF divided by expression of VEGF): human astrocyte; for GDNP expression: FIG. 6; for suppression of the vascular permeability (expression of GDNF divided by expression of VEGF): non-treated group as inner control; for expression of GDNF mRNA: preliminary experiment, see FIG. 6. As for the experimental part:
as §1
Whilst, the expression of VRGF that is a strong vascular hyperpermeability factor was suppressed in the treated groups. The level of suppression of the vascular permeability in the treated groups is represented by a relative amount of the two factors that define permeability, specifically, a value obtained by dividing a value of the expression of GDNF that is the permeability-suppressing factor by a value of the expression of VEGF that is a hyperpermeability factor. In this case, a value of the expression of each of non-treated groups is used as an inner control, and an amount of the expression of the treated groups is calculated from the concentration on the gel and the area. […] The experimental groups in FIG. 6 are as follows, and the upper figure indicates the photographs of the gel, the lower figure indicates visualized differences of relative amounts obtained by the quantification thereof.

Experiment [3] concerns diabetic model mice. Kind of experiment: Streptozotocin-induced diabetic model mice, FITC dextran in the eyes as index of vascular permeability. The experiment is classed as in vivo, mouse. As to conditions: atRA 1 mg/kg intraperitoneally.
Procedure: Male 5 to 6 week-old C57/BL6 mice were administered with streptozotocin and diabetes was chemically induce in these model mice. To these diabetic model mice, retinoids were administered to evaluate clinical effectiveness. For reference, mice without the diabetic induction were used as control.
Experimental groups: 1. Control (group of non-induction of diabetes) 2. Diabetic group (non-treated group) 3. Diabetic group (atRA-treated group) 4. Diabetic group (Am580-treated group) 5. Diabetic group (Am80-treated group)
The onset of diabetes was confirmed by periodical measurement of glucose in urine, and after all the mice became strongly positive, by measurement of blood glucose. The mice of 4 to 6 week-pathological period with diabetes were used. […] Mice were divided into 4 groups as mentioned above for the treatment. The treatment were performed by administrating atRA (1 mg/kg), Am580 (3.75 mg/kg), and Am80 (4.5 mg/kg) intraperitoneally every other day for 4 days. […] As the index of the permeability, the FITC in the eyes was measured, and the value was standardized with the FITC amount contained in cardiac blood to minimize a potential difference between each amount of dose.
As biological parameters, blood sugar (BS) and urine sugar (US) were evaluated.
In experiment [4] the test system is MDCK (Madin Darby Canine Kidney) cell. Kind of experiment: Barrier function evaluation with MDCK cells, same parameters as Example 2. It is filed as cell-based, dog. From the text:
The vascular endothelial cell used in Example 2 is the primary culture strain obtained from the bovine brain, which has an advantage of capable of reproducing in vitro conditions more similar to those in a living body. However, unlike those called as cell lines, the strain of the primary cultured cell has limited number of division and a slow division rate, and therefore has an aspect of unsuitability for an experimental system that requires repeated examination. Accordingly, MDCK (Madin Darby Canine Kidney) cell as dog-derived kidney tubule cell (easily available commercially) was used, which cell is optimum for the evaluation of the barrier function and has been experienced of being already used in variety of experimental systems. The effect of synthetic retinoids was evaluated with the same parameter as those in Example 2. The experimental groups in FIG. 5 are as follows:
1. Non-treated group 2. atRA (RARα agonist) 3. Am80 (RARα agonist) 4. Am580 (RARα agonist)
In FIG. 5, the non-treated group (control) is defined as “1”, and relative differences thereto are shown as graphs.

In experiment [5] the test system is GDNF. Kind of experiment: Suppression of GDNF expression by AGE-2 in human astrocyte (RT-PCR, ELISA). It is filed as cell-based. To be noted: p<0.001; for inhibition of the effect of AGE-2 to suppress the expression of GDNF, protein level: combination with AGE-2, ELISA of cell culture medium; for inhibition of the effect of AGE-2 to suppress the expression of GDNF, mRNA level: combination with AGE-2, RT-PCR. As for the experimental part: Human astrocyte was treated with AGE-2 alone, or combinations of AGE-2 with atRA or Am580, and alterations in the expression of GDNF was evaluated in the same manner as FIG. 6.

Experiment [6] relates to vascular endothelial cells. Kind of experiment: Direct treatment of vascular endothelial cells in the absence of astrocyte. The experiment is classed as cell-based. To be noted: FIG. 8. From the text: It is known that the vascular endothelial cells also have retinoid receptors, and accordingly, there remains a possibility that atRA contained in the cell culture medium effected directly on the vascular endothelial cells during the co-culture. However, when a recombinant protein of GDNF was directly effected on the vascular endothelial cells in the absence of astrocyte, the increase in TER and the decrease in the permeability were induced (*p<0.05), whilst these changes were not observed when the cells were treated with atRA (FIG. 8).

Experiment [7] concerns vascular endothelial cells obtained from the bovine brain. Put plainly: Barrier function of vascular endothelial cells co-cultured with atRA-treated U373MG cells (transwell double chamber). It is filed as cell-based. To be noted: p<0.05. As for the experimental part: In order to evaluate whether or not the alteration induces physiological reactions, co-cultivation with vascular endothelial was performed. […] As can be understood from FIG. 3, the […] cells (astrocytes) were grown as effector cells in the outer chamber, and treated with atRA and cultured for additional 24 hours. In the inner chamber separately prepared, vascular endothelial cells obtained from the bovine brain were cultured to prepare beforehand for forming a dense single layer cell-sheet.
The outer chamber with U373MG cells and the inner chamber with the vascular endothelial cells were jointed to start the co-culture for evaluation of the barrier function that is a tight-function of the vascular endothelial cells. […] In this experiment, as functional alterations of the vascular endothelial cells by the influence of the astrocyte, the difference in electrical resistance inside and outside of the vascular endothelial cells, and the mobility to the outer chamber of the labeled substance (^14C-labeled) added in the inner chamber were evaluated as indexes as the vascular permeability. The activity of the transferred radioactive substance is indicated as dpm (disintegrations per minutes).

Experiment [8] deals with GDNF. Put plainly: GDNF expression by atRA treatment in human glioma cells (quantitative RT-PCR, Southern blot). It is filed as cell-based. As to conditions: U373MG cells.
Procedure: U373MG cells were cultured in a relatively dense state, and were treated with 10 nM or 100 nM of all-trans retinoic acid (atRA). mRNA was extracted from the cells and subjected to quantitative RT-PCR, and then changes in the gene expression were analyzed and quantified by the Southern blot method. Reverse transcription was performed by using a kit manufactured by Invitrogen. The reagents were prepared according to the manufacturer's instructions, and reacted at 42° C. for 30 minutes. The product was used for PCR after denaturation of reverse transcriptase at 96° C. for 5 minutes. For the PCR reaction, each reagent manufactured by TaKaRa was prepared by mixing according to the manufacturer's instructions, and the following reactions were performed:
1) 94° C., 30 seconds 2) 94° C., 15 seconds 3) 52° C., 15 seconds 4) 72° C., 30 seconds 5) repeat of the reactions from 2) to 4) for 32 times 6) 72° C., 7 minutes
The final reaction product was used for the Southern blot test.
The mark [9] stands for this setting: relative to non-treated group, p<0.05.
Where [10] appears, read: 14C-labeled, co-culture with atRA-treated U373MG cells.

As for `CC1(C)CCC(C)(C)c2cc(C(=O)Nc3ccc(C(=O)O)cc3)ccc21` [Am580, 4-[(5,6,7,8-tetrahydro-5,5,8,8-tetramethyl-2-naphthalenyl)carboxamide]benzoic acid], the “expression of VRGF” value in experiment [1] is recorded as “suppressed”. In experiment [2], the GDNP expression result is given as “significantly increases”; the “suppression of the vascular permeability (expression of GDNF divided by expression of VEGF)” value is on record as “about three-fold”; the “expression of GDNF mRNA” value is “induced the expression of GDNF mRNA in a dose-dependent and time-dependent manner”. Besides, the “effectiveness on vascular hyperpermeability (amount of FITC in the eyes)” value in experiment [3] (middle stage diabetic group, Am580 3.75 mg/kg) is on record as “higher effectiveness than atRA”. Besides, the TER entry in experiment [4] (relative to non-treated group defined as 1, p<0.05) was “more effective than atRA, and much effective than Am80”. In experiment [4] (setting [9]), the “intercellular permeability (inulin)” value is recorded as “most effectively suppressed” and the “intercellular permeability (mannitol)” value is on record as “most effectively suppressed”. In addition, in experiment [5], the “inhibition of the effect of AGE-2 to suppress the expression of GDNF, protein level” value is listed as “strongly inhibited” and the “inhibition of the effect of AGE-2 to suppress the expression of GDNF, mRNA level” value is reported as “strongly inhibited”.
On to `CC1=C(/C=C/C(C)=C/C=C/C(C)=C/C(=O)O)C(C)(C)CCC1` [atRA, all-trans retinoic acid], for which the “expression of VRGF” value in experiment [1] was “suppressed”. Further, in experiment [6], the TER entry is given as “not observed” and the permeability result was “not observed”. For the same molecule, in experiment [2], the GDNP expression result is reported as “significantly increases”; the “suppression of the vascular permeability (expression of GDNF divided by expression of VEGF)” value is given as “about three-fold”; the “expression of GDNF mRNA” value was “induced the expression of GDNF mRNA in a dose-dependent and time-dependent manner”. The “urine sugar (US)” value in experiment [3] (diabetic mice, compared to the non-treated group) is given as “Significantly lower”. Also, in experiment [7] (setting [10]), the “permeability of inulin (5 kDa)” value is on record as “significantly suppressed” and the “permeability of mannitol (182 Da)” value is “significantly suppressed”. Moreover, in experiment [7] (co-culture with U373MG cells treated with atRA), the “TER (transepithelial electrical resistance), barrier function of the vascular endothelial cells” value is reported as “enhanced”. For the same molecule, the “time at which the increase in GDNF expression reached a plateau level” value in experiment [8] is on record as “about 3 hours”. In addition, in experiment [8] (10 nM or 100 nM, after 3 hours and 24 hours), the “GDNF mRNA level expression” value is recorded as “increased in relation to the elevated concentration”. Also, in experiment [5], the “inhibition of the effect of AGE-2 to suppress the expression of GDNF, protein level” value was “strongly inhibited” and the “inhibition of the effect of AGE-2 to suppress the expression of GDNF, mRNA level” value was “strongly inhibited”.

B1: recombinant protein of GDNF: recombinant glial cell line-derived neurotrophic factor (protein, UniProt P39905 78-211, looked up)
Glial cell line-derived …: SPDKQMAVLPRRERNRQAAAANPENSRGKGRRGQRGKNRGCVLTAIHLNVTDLGLGYETKEELIFRYCSGSCDAAETTYDKILKNLSRNRRLVSDKVGQACCRPIAFDDDLSFLDDNLVYHILRKHSAKRCGCI
For the molecule B1, in experiment [6], the TER result is “increase” and the permeability result was “decrease”.
